Laboratory results published in paper PMC12130801, “Restoration of the Tumor Suppressor Function of Y220C-Mutant p53 by Rezatapopt, a Small-Molecule Reactivator” (Cancer Discovery, 2025).

Legend:
[1] = target: T1, p53 Y220C mutant (Homo sapiens, UniProt P04637, Y220C); test: SPR (Biacore 8K); also thermal shift and TR-FRET DNA binding
T1 construct: gene TP53; Biotinylated DBD of p53-Y220C

[2] = system: HCT 116; test: cells; parameters: 5-day MTT proliferation assay, absorbance 570 nm, per cent viability of untreated cells, IC50 from XLfit; conditions: Homo sapiens, HCT-116, 120 h; 5-day MTT proliferation; read-out: PC14586 MTT IC50
Procedure: (§1) The antiproliferative activity of compounds was evaluated using the MTT (Sigma-Aldrich, Cat. # M5655-1G) assay in a 96-well plate format. Cells were seeded at an appropriate density depending on the growth rate in 96-well microtiter plates, and compounds were tested at eight concentrations with 2-fold serial dilutions. Antiproliferative activity was assessed 5 days later by the conversion of the tetrazolium dye MTT (1 mg/mL) into insoluble formazan by viable cells, which was dissolved in ethanol and measured by a microplate reader for absorbance with a wavelength of 570 nm and a reference wavelength of 650 nm. The results were presented as a percentage of the viability of untreated cells (control). The IC50 was determined from the regression of a plot of the logarithm of concentration versus percentage of viability by XLfit IDBS. The data presented thus far indicate that PC14586 is a potent and selective reactivator of p53-Y220C with strong antiproliferative effects driven by cell-cycle arrest. To further investigate the selectivity and effects on proliferation following treatment with PC14586, additional p53-Y220C, p53 hotspot mutant, and p53-WT cell lines were assessed in a 5-day 3-[4,5-dimethylthiazol-2-yl]-2,5-diphenyl tetrazolium bromide (MTT) assay. […] The less sensitive p53-Y220C cell lines, TE-8 and HCC1419, have an additional p53 mutation. In the case of TE-8, the secondary mutation, M237I, is in the DBD of p53 and has been reported to interfere with p53 DNA binding ([36]). The spectrum of sensitivity to our compounds in cell lines with additional p53 mutations may indicate that monitoring second-site mutations and patient responses could yield mechanistic insights and potential biomarkers.

[3] = system: SNU-NCC-19; test: cells; parameters: 5-day MTT proliferation assay, absorbance 570 nm, per cent viability of untreated cells, IC50 from XLfit; conditions: 120 h; 5-day MTT proliferation; read-out: PC14586 MTT IC50
Procedure: as §1

[4] = system: C-33A; test: cells; parameters: 5-day MTT proliferation assay, absorbance 570 nm, per cent viability of untreated cells, IC50 from XLfit; conditions: Homo sapiens, C-33-A, 120 h; 5-day MTT proliferation; read-out: PC14586 MTT IC50
Procedure: as §1

[5] = system: HCC1419#; test: cells; parameters: 5-day MTT proliferation assay, absorbance 570 nm, per cent viability of untreated cells, IC50 from XLfit; conditions: Homo sapiens, HCC1419, 120 h; 5-day MTT proliferation; read-out: PC14586 MTT IC50
Procedure: as §1

[6] = system: NUGC-3; test: cells; parameters: 5-day MTT proliferation assay, absorbance 570 nm, per cent viability of untreated cells, IC50 from XLfit; conditions: Homo sapiens, NUGC-3, 120 h; 5-day MTT proliferation; read-out: PC14586 MTT IC50
Procedure: as §1

[7] = system: EFE-184; test: cells; parameters: 5-day MTT proliferation assay, absorbance 570 nm, per cent viability of untreated cells, IC50 from XLfit; conditions: Homo sapiens, EFE-184, 120 h; 5-day MTT proliferation; read-out: PC14586 MTT IC50
Procedure: as §1

[8] = system: TOV-112D; test: cells; parameters: 5-day MTT proliferation assay, absorbance 570 nm, per cent viability of untreated cells, IC50 from XLfit; conditions: Homo sapiens, TOV112D, 120 h; 5-day MTT proliferation; read-out: PC14586 MTT IC50
Procedure: as §1

[9] = system: SF-295; test: cells; parameters: 5-day MTT proliferation assay, absorbance 570 nm, per cent viability of untreated cells, IC50 from XLfit; conditions: Homo sapiens, SF-295, 120 h; 5-day MTT proliferation; read-out: PC14586 MTT IC50
Procedure: as §1

[10] = system: TE-8#; test: cells; parameters: 5-day MTT proliferation assay, absorbance 570 nm, per cent viability of untreated cells, IC50 from XLfit; conditions: Homo sapiens, TE-8, 120 h; 5-day MTT proliferation; read-out: PC14586 MTT IC50
Procedure: as §1

[11] = system: MFE-296#; test: cells; parameters: 5-day MTT proliferation assay, absorbance 570 nm, per cent viability of untreated cells, IC50 from XLfit; conditions: Homo sapiens, MFE-296, 120 h; 5-day MTT proliferation; read-out: PC14586 MTT IC50
Procedure: as §1

[12] = system: SU.86.86; test: cells; parameters: 5-day MTT proliferation assay, absorbance 570 nm, per cent viability of untreated cells, IC50 from XLfit; conditions: Homo sapiens, SU.86.86, 120 h; 5-day MTT proliferation; read-out: PC14586 MTT IC50
Procedure: as §1

[13] = system: SJSA-1; test: cells; parameters: 5-day MTT proliferation assay, absorbance 570 nm, per cent viability of untreated cells, IC50 from XLfit; conditions: Homo sapiens, SJSA-1, 120 h; 5-day MTT proliferation; read-out: PC14586 MTT IC50
Procedure: as §1

[14] = system: KON; test: cells; parameters: 5-day MTT proliferation assay, absorbance 570 nm, per cent viability of untreated cells, IC50 from XLfit; conditions: 120 h; 5-day MTT proliferation; read-out: PC14586 MTT IC50
Procedure: as §1

[15] = system: NUGC-3_KO; test: cells; parameters: 5-day MTT proliferation assay, absorbance 570 nm, per cent viability of untreated cells, IC50 from XLfit; conditions: 120 h; 5-day MTT proliferation; read-out: PC14586 MTT IC50
Procedure: as §1

[16] = system: HCC2935; test: cells; parameters: 5-day MTT proliferation assay, absorbance 570 nm, per cent viability of untreated cells, IC50 from XLfit; conditions: Homo sapiens, HCC2935, 120 h; 5-day MTT proliferation; read-out: PC14586 MTT IC50
Procedure: as §1

[17] = system: A-431; test: cells; parameters: 5-day MTT proliferation assay, absorbance 570 nm, per cent viability of untreated cells, IC50 from XLfit; conditions: Homo sapiens, A-431, 120 h; 5-day MTT proliferation; read-out: PC14586 MTT IC50
Procedure: as §1

[18] = system: HuH-7; test: cells; parameters: 5-day MTT proliferation assay, absorbance 570 nm, per cent viability of untreated cells, IC50 from XLfit; conditions: Homo sapiens, Huh-7, 120 h; 5-day MTT proliferation; read-out: PC14586 MTT IC50
Procedure: as §1

[19] = system: T3M-4; test: cells; parameters: 5-day MTT proliferation assay, absorbance 570 nm, per cent viability of untreated cells, IC50 from XLfit; conditions: T3M4, 120 h; 5-day MTT proliferation; read-out: PC14586 MTT IC50
Procedure: as §1

[20] = system: BxPC-3; test: cells; parameters: 5-day MTT proliferation assay, absorbance 570 nm, per cent viability of untreated cells, IC50 from XLfit; conditions: Homo sapiens, BXPC-3, 120 h; 5-day MTT proliferation; read-out: PC14586 MTT IC50
Procedure: as §1

T1 sequence (P04637 94-312 limits assumed, stated change not applied): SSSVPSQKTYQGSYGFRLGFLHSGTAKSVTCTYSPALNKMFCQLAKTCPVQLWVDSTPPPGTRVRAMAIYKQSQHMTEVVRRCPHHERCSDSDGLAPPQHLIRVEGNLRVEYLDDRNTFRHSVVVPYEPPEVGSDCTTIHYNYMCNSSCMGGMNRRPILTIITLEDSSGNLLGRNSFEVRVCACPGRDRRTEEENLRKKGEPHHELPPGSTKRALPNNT

IC50 [2]: 19.3 µM | IC50 [3]: 0.23 µM | IC50 [5]: 4.87 µM | IC50 [13]: > 20 µM | IC50 [16]: 0.4 µM | IC50 [17]: 13.8 µM | IC50 [18]: 0.49 µM | IC50 [20]: 0.33 µM
Compound: CNC(=O)c1ccc(NCC#Cc2cc3c(N[C@@H]4CCN(C)C[C@@H]4F)cccc3n2CC(F)(F)F)c(OC)c1 [PC14586, rezatapopt]
Kd [1]: PC14374 and PC14586 both have low nmol/L SC150 and SPR Kd | IC50 [4]: 18.5 µM | IC50 [6]: 0.59 µM | IC50 [7]: 12.5 µM | IC50 [8]: 13 µM | IC50 [9]: 11.2 µM | IC50 [10]: 8.66 µM | IC50 [11]: 0.5 µM | IC50 [12]: 16.8 µM | IC50 [14]: 1.05 µM | IC50 [15]: 15.5 µM | IC50 [19]: 1.81 µM
